US10059676B2, “Process for preparing a novel crystalline form of iodosulfuron-methyl-sodium and use of the same” (ROTAM AGROCHEM INTERNATIONAL COMPANY LIMITED, priority 2015, dated 2018)

Assay: Stability test: accelerated storage of formulations, relative percentage of hydrolysis (RPH) by HPLC (CIPAC MT 46.3)
Type: physicochemical
Settings: for stability (hydrolysis), in words: general statement, in water, on storage, in formulations; for RPH % (relative percentage of hydrolysis): stored at 54° C. for 1 week
Description: The stability of the iodosulfuron-methyl-sodium in these compositions was determined by aging samples in heated ovens having the same atmosphere therein, and then comparing the iodosulfuron-methyl-sodium content before and after the aging to determine relative percentage of hydrolysis (RPH). RPH was calculated by the following equation: […]
Iodosulfuron-methyl-sodium content was determined by assaying the compositions with high-pressure liquid chromatography (HPLC) using reverse phase columns and eluants.
Samples prepared in Examples 4, 5 and 6 were stored at 54° C. for 1 week. The procedures are followed according to CIPAC MT 46.3. The concentration of iodosulfuron-methyl-sodium was measured at the end of each storage time by HPLC.

[1] = oil based suspension concentrate (OD) of Example 4, 40 wt% iodosulfuron-methyl-sodium
[2] = soluble granules (SG) of Example 5, 25 wt% iodosulfuron-methyl-sodium
[3] = water dispersible granules (WG) of Example 6, 25 wt% iodosulfuron-methyl-sodium

Structure (SMILES)	stability (hydrolysis), in words (listed as crystalline modification I of iodosulfuron-methyl-sodium)	RPH % (relative percentage of hydrolysis) [1] [%]	RPH % (relative percentage of hydrolysis) [2] [%]	RPH % (relative percentage of hydrolysis) [3] [%]	stability (hydrolysis), in words (listed as iodosulfuron-methyl-sodium in the amorphous state)
COC(=O)c1ccc(I)cc1S(=O)(=O)NC(=O)[N-]c1nc(C)nc(OC)n1.[Na+] [Iodosulfuron-methyl-sodium, crystalline modification I] [sodium salt of methyl 4-iodo-2-[[[[(4-methoxy-6-methyl-1,3,5-triazin-2-yl)amino]carbonyl]amino]sulfonyl]benzoate]	significant increase in its stability	0	0	0	
COC(=O)c1ccc(I)cc1S(=O)(=O)NC(=O)[N-]c1nc(C)nc(OC)n1.[Na+] [Amorphous iodosulfuron-methyl-sodium, sodium salt of methyl 4-iodo-2-[[[[(4-methoxy-6-methyl-1,3,5-triazin-2-yl)amino]carbonyl]amino]sulfonyl]benzoate]		49	42	40	highly unstable
